Source: the CheMixHub viscosity set
± gives the uncertainty stated by the source.

Test: xn = mol fraction of the nth substance listed

`CC#N` + CC(C)O gave a viscosity (293.15 K, 101.32 kPa, x1 = 0.0526) of 1.921 ± 0.015 mPa·s, a viscosity (293.15 K, 101.32 kPa, x1 = 0.0771) of 1.736 ± 0.014 mPa·s and a viscosity (293.15 K, 101.32 kPa, x1 = 0.1018) of 1.572 ± 0.013 mPa·s. For the same compound, the viscosity (293.15 K, 101.32 kPa, x1 = 0.2227) was 1.15 ± 0.009 mPa·s, the viscosity (293.15 K, 101.32 kPa, x1 = 0.3314) was 0.8622 ± 0.0073 mPa·s and the viscosity (293.15 K, 101.32 kPa, x1 = 0.3989) was 0.7354 ± 0.0063 mPa·s. It also gave a viscosity (293.15 K, 101.32 kPa, x1 = 0.55) of 0.5657 ± 0.0051 mPa·s, a viscosity (293.15 K, 101.32 kPa, x1 = 0.625) of 0.502 ± 0.0046 mPa·s and a viscosity (293.15 K, 101.32 kPa, x1 = 0.6893) of 0.4639 ± 0.0043 mPa·s. The viscosity (293.15 K, 101.32 kPa, x1 = 0.7624) was 0.4194 ± 0.004 mPa·s, the viscosity (293.15 K, 101.32 kPa, x1 = 0.864) was 0.3823 ± 0.0037 mPa·s and the viscosity (298.15 K, 101 kPa, x1 = 0.1056) was 1.372 ± 0.019 mPa·s. The viscosity (298.15 K, 101 kPa, x1 = 0.1688) was 1.145 ± 0.015 mPa·s, the viscosity (298.15 K, 101 kPa, x1 = 0.2531) was 0.923 ± 0.012 mPa·s and the viscosity (298.15 K, 101 kPa, x1 = 0.4135) was 0.653 ± 0.008 mPa·s. The viscosity (298.15 K, 101 kPa, x1 = 0.5014) was 0.556 ± 0.007 mPa·s, the viscosity (298.15 K, 101 kPa, x1 = 0.6077) was 0.473 ± 0.006 mPa·s and the viscosity (298.15 K, 101 kPa, x1 = 0.7093) was 0.424 ± 0.005 mPa·s. It also gave a viscosity (298.15 K, 101 kPa, x1 = 0.8276) of 0.373 ± 0.004 mPa·s, a viscosity (298.15 K, 101 kPa, x1 = 0.9013) of 0.356 ± 0.004 mPa·s and a viscosity (298.15 K, 101.3 kPa, x1 = 0.1399) of 1.254 ± 0.03 mPa·s. It also gave a viscosity (298.15 K, 101.3 kPa, x1 = 0.2679) of 0.846 ± 0.021 mPa·s, a viscosity (298.15 K, 101.3 kPa, x1 = 0.3855) of 0.66 ± 0.017 mPa·s and a viscosity (298.15 K, 101.3 kPa, x1 = 0.4939) of 0.541 ± 0.015 mPa·s. It also gave a viscosity (298.15 K, 101.3 kPa, x1 = 0.5942) of 0.482 ± 0.014 mPa·s, a viscosity (298.15 K, 101.3 kPa, x1 = 0.6871) of 0.419 ± 0.012 mPa·s and a viscosity (298.15 K, 101.3 kPa, x1 = 0.7736) of 0.372 ± 0.011 mPa·s. The viscosity (298.15 K, 101.3 kPa, x1 = 0.8541) was 0.343 ± 0.011 mPa·s, the viscosity (298.15 K, 101.3 kPa, x1 = 0.9295) was 0.342 ± 0.011 mPa·s and the viscosity (303.15 K, 101 kPa, x1 = 0.1056) was 1.088 ± 0.014 mPa·s. The viscosity (303.15 K, 101 kPa, x1 = 0.1688) was 0.918 ± 0.012 mPa·s, the viscosity (303.15 K, 101 kPa, x1 = 0.2531) was 0.762 ± 0.009 mPa·s and the viscosity (303.15 K, 101 kPa, x1 = 0.4135) was 0.551 ± 0.007 mPa·s. The viscosity (303.15 K, 101 kPa, x1 = 0.5014) was 0.482 ± 0.006 mPa·s, the viscosity (303.15 K, 101 kPa, x1 = 0.6077) was 0.417 ± 0.005 mPa·s and the viscosity (303.15 K, 101 kPa, x1 = 0.7093) was 0.382 ± 0.004 mPa·s. It also gave a viscosity (303.15 K, 101 kPa, x1 = 0.8276) of 0.341 ± 0.004 mPa·s, a viscosity (303.15 K, 101 kPa, x1 = 0.9013) of 0.327 ± 0.004 mPa·s and a viscosity (303.15 K, 101.3 kPa, x1 = 0.1399) of 1.114 ± 0.027 mPa·s. For the same compound, the viscosity (303.15 K, 101.3 kPa, x1 = 0.2679) was 0.758 ± 0.02 mPa·s, the viscosity (303.15 K, 101.3 kPa, x1 = 0.3855) was 0.599 ± 0.016 mPa·s and the viscosity (303.15 K, 101.3 kPa, x1 = 0.4939) was 0.502 ± 0.014 mPa·s. For the same compound, the viscosity (303.15 K, 101.3 kPa, x1 = 0.5942) was 0.45 ± 0.013 mPa·s, the viscosity (303.15 K, 101.3 kPa, x1 = 0.6871) was 0.394 ± 0.012 mPa·s and the viscosity (303.15 K, 101.3 kPa, x1 = 0.7736) was 0.356 ± 0.011 mPa·s. It also gave a viscosity (303.15 K, 101.3 kPa, x1 = 0.8541) of 0.327 ± 0.01 mPa·s, a viscosity (303.15 K, 101.3 kPa, x1 = 0.9295) of 0.326 ± 0.01 mPa·s and a viscosity (303.15 K, 101.32 kPa, x1 = 0.0526) of 1.464 ± 0.012 mPa·s. For the same compound, the viscosity (303.15 K, 101.32 kPa, x1 = 0.0771) was 1.361 ± 0.011 mPa·s, the viscosity (303.15 K, 101.32 kPa, x1 = 0.1018) was 1.239 ± 0.01 mPa·s and the viscosity (303.15 K, 101.32 kPa, x1 = 0.2227) was 0.9168 ± 0.0077 mPa·s. For the same compound, the viscosity (303.15 K, 101.32 kPa, x1 = 0.3314) was 0.7097 ± 0.0062 mPa·s, the viscosity (303.15 K, 101.32 kPa, x1 = 0.3989) was 0.6154 ± 0.0054 mPa·s and the viscosity (303.15 K, 101.32 kPa, x1 = 0.55) was 0.4831 ± 0.0045 mPa·s. The viscosity (303.15 K, 101.32 kPa, x1 = 0.625) was 0.4366 ± 0.0041 mPa·s, the viscosity (303.15 K, 101.32 kPa, x1 = 0.6893) was 0.407 ± 0.0039 mPa·s and the viscosity (303.15 K, 101.32 kPa, x1 = 0.7624) was 0.378 ± 0.0037 mPa·s. The viscosity (303.15 K, 101.32 kPa, x1 = 0.864) was 0.344 ± 0.0034 mPa·s, the viscosity (308.15 K, 101 kPa, x1 = 0.1056) was 0.871 ± 0.011 mPa·s and the viscosity (308.15 K, 101 kPa, x1 = 0.1688) was 0.739 ± 0.01 mPa·s. For the same compound, the viscosity (308.15 K, 101 kPa, x1 = 0.2531) was 0.635 ± 0.008 mPa·s, the viscosity (308.15 K, 101 kPa, x1 = 0.4135) was 0.475 ± 0.006 mPa·s and the viscosity (308.15 K, 101 kPa, x1 = 0.5014) was 0.42 ± 0.005 mPa·s. The viscosity (308.15 K, 101 kPa, x1 = 0.6077) was 0.372 ± 0.004 mPa·s, the viscosity (308.15 K, 101 kPa, x1 = 0.7093) was 0.345 ± 0.004 mPa·s and the viscosity (308.15 K, 101 kPa, x1 = 0.8276) was 0.312 ± 0.004 mPa·s. For the same compound, the viscosity (308.15 K, 101 kPa, x1 = 0.9013) was 0.302 ± 0.004 mPa·s, the viscosity (308.15 K, 101.3 kPa, x1 = 0.1399) was 0.995 ± 0.025 mPa·s and the viscosity (308.15 K, 101.3 kPa, x1 = 0.2679) was 0.687 ± 0.018 mPa·s. For the same compound, the viscosity (308.15 K, 101.3 kPa, x1 = 0.3855) was 0.546 ± 0.015 mPa·s, the viscosity (308.15 K, 101.3 kPa, x1 = 0.4939) was 0.465 ± 0.013 mPa·s and the viscosity (308.15 K, 101.3 kPa, x1 = 0.5942) was 0.417 ± 0.012 mPa·s. For the same compound, the viscosity (308.15 K, 101.3 kPa, x1 = 0.6871) was 0.37 ± 0.011 mPa·s, the viscosity (308.15 K, 101.3 kPa, x1 = 0.7736) was 0.331 ± 0.01 mPa·s and the viscosity (308.15 K, 101.3 kPa, x1 = 0.8541) was 0.311 ± 0.01 mPa·s. For the same compound, the viscosity (308.15 K, 101.3 kPa, x1 = 0.9295) was 0.309 ± 0.01 mPa·s, the viscosity (313.15 K, 101.3 kPa, x1 = 0.1399) was 0.889 ± 0.022 mPa·s and the viscosity (313.15 K, 101.3 kPa, x1 = 0.2679) was 0.623 ± 0.017 mPa·s. It also gave a viscosity (313.15 K, 101.32 kPa, x1 = 0.0526) of 1.125 ± 0.009 mPa·s, a viscosity (313.15 K, 101.32 kPa, x1 = 0.0771) of 1.047 ± 0.009 mPa·s and a viscosity (313.15 K, 101.32 kPa, x1 = 0.1018) of 0.991 ± 0.0083 mPa·s. The viscosity (313.15 K, 101.32 kPa, x1 = 0.2227) was 0.7301 ± 0.0063 mPa·s, the viscosity (313.15 K, 101.32 kPa, x1 = 0.3314) was 0.5949 ± 0.0053 mPa·s and the viscosity (313.15 K, 101.32 kPa, x1 = 0.3989) was 0.5253 ± 0.0048 mPa·s. The viscosity (313.15 K, 101.32 kPa, x1 = 0.55) was 0.4201 ± 0.004 mPa·s, the viscosity (313.15 K, 101.32 kPa, x1 = 0.625) was 0.3817 ± 0.0037 mPa·s and the viscosity (313.15 K, 101.32 kPa, x1 = 0.6893) was 0.361 ± 0.0036 mPa·s. It also gave a viscosity (313.15 K, 101.32 kPa, x1 = 0.7624) of 0.3321 ± 0.0033 mPa·s, a viscosity (313.15 K, 101.32 kPa, x1 = 0.864) of 0.3081 ± 0.0032 mPa·s and a viscosity (323.15 K, 101 kPa, x2 = 0.0989) of 0.289 ± 0.01 mPa·s. It also gave a viscosity (323.15 K, 101 kPa, x2 = 0.1994) of 0.312 ± 0.01 mPa·s, a viscosity (323.15 K, 101 kPa, x2 = 0.2943) of 0.34 ± 0.01 mPa·s and a viscosity (323.15 K, 101 kPa, x2 = 0.3965) of 0.378 ± 0.01 mPa·s. It also gave a viscosity (323.15 K, 101 kPa, x2 = 0.4864) of 0.427 ± 0.01 mPa·s, a viscosity (323.15 K, 101 kPa, x2 = 0.6077) of 0.499 ± 0.01 mPa·s and a viscosity (323.15 K, 101 kPa, x2 = 0.7049) of 0.58 ± 0.01 mPa·s. The viscosity (323.15 K, 101 kPa, x2 = 0.8007) was 0.685 ± 0.01 mPa·s, the viscosity (323.15 K, 101 kPa, x2 = 0.8971) was 0.815 ± 0.011 mPa·s and the viscosity (323.15 K, 101.32 kPa, x1 = 0.0526) was 0.9024 ± 0.0077 mPa·s. For the same compound, the viscosity (323.15 K, 101.32 kPa, x1 = 0.0771) was 0.8427 ± 0.0072 mPa·s, the viscosity (323.15 K, 101.32 kPa, x1 = 0.1018) was 0.7839 ± 0.0068 mPa·s and the viscosity (323.15 K, 101.32 kPa, x1 = 0.2227) was 0.6091 ± 0.0054 mPa·s. For the same compound, the viscosity (323.15 K, 101.32 kPa, x1 = 0.3314) was 0.5031 ± 0.0046 mPa·s, the viscosity (323.15 K, 101.32 kPa, x1 = 0.3989) was 0.4466 ± 0.0042 mPa·s and the viscosity (323.15 K, 101.32 kPa, x1 = 0.55) was 0.3731 ± 0.0037 mPa·s. For the same compound, the viscosity (323.15 K, 101.32 kPa, x1 = 0.625) was 0.3434 ± 0.0034 mPa·s, the viscosity (323.15 K, 101.32 kPa, x1 = 0.6893) was 0.329 ± 0.0033 mPa·s and the viscosity (323.15 K, 101.32 kPa, x1 = 0.7624) was 0.3054 ± 0.0032 mPa·s. The viscosity (323.15 K, 101.32 kPa, x1 = 0.864) was 0.2835 ± 0.003 mPa·s.
